Positions of bridges follow the written chain, without caps; N, C: chain ends. Non-standard residues stand in square brackets, D forms with d. Residues, ends and D or L forms follow the SMILES beside them. Orn = NCCC[C@H](N)C(=O)O; Mpa = O=C(O)CCS
Key:
[1] = test system: Human uterine smooth muscle cells; experiment: Intracellular Ca2+ measurement (Fluo-4, confocal live cell imaging) in uterine smooth muscle cells; assay type: cell-based
Method: Human uterine smooth muscle cells were established in a culture. Intracellular Ca^2+ was measured with the calcium indicator dye Fluo-4 and live cell imaging with confocal microscopy was established for the cells.

[2] = heparin, comparison; cited from earlier work

Compound: NCCOB(c1ccccc1)c1ccccc1 [2-APB, 2-Aminoethoxydiphenyl borate]
- effect on oxytocin stimulated Ca2+-transport ([1]; 100 μM, 30 min of incubation): decreased strongly
- effect on oxytocin/DF01 stimulated Ca2+-transport ([1]; 100 μM, 30 min of incubation): decreased strongly

Compound: CCOc1ccc(C[C@H]2NC(=O)CCSSC[C@@H](C(=O)N3CCC[C@H]3C(=O)N[C@@H](CCCN)C(=O)NCC(N)=O)NC(=O)[C@H](CC(N)=O)NC(=O)[C@H]([C@@H](C)O)NC(=O)[C@H]([C@@H](C)CC)NC2=O)cc1 [Atosiban] ([Mpa][dY](Et)ITNCP[Orn]G-NH2; disulfide 1-6)
- effect on the combination oxytocin/DF01 effect on Ca2+ transport ([1]; concentration of 10^−6 M): clearly inhibited
- effect on the oxytocin effect on Ca2+ transport ([1]; concentration of 10^−6 M): clearly inhibited

Compound: CC[C@H](C)[C@@H]1NC(=O)[C@H](Cc2ccc(O)cc2)NC(=O)[C@@H](N)CSSC[C@@H](C(=O)N2CCC[C@H]2C(=O)N[C@@H](CC(C)C)C(=O)NCC(N)=O)NC(=O)[C@H](CC(N)=O)NC(=O)[C@H](CCC(N)=O)NC1=O [oxytocin]
- Ca2+-influx to the cytosol ([1]; cells treated with oxytocin alone): Ca^2+-influx to the cytosol was demonstrated
- concentration giving maximum effect on Ca2+-influx ([1]; oxytocin alone, dose-dependent effect): 0.05 IU/ml

Compound: heparin
- corresponding (subcutaneous) bioavailability [2]: about 10%

Source: patent US20150099703A1, “TREATMENT OF POSTPARTUM HAEMORRHAGE WITH CHEMICALLY MODIFIED HEPARIN OR HEPARAN SULPHATE AND A UTEROTONIC AGENT” (DILAFOR AB, priority 2012, published 2015)
